Tests used:
Format in all cases: physicochemical
[1] = tested on: mouse IgG anti-AFP; test: Labelling of mouse IgG anti-AFP with rhodamine 6G labels; absorption spectrum of the conjugate; details: for normal absorption band of labelled mouse IgG anti-AFP: absorption spectrum of IgG conjugate in phosphate buffered saline pH 7.4; for additional absorption band of labelled mouse IgG anti-AFP (non-fluorescent aggregates, hydrophobic interactions): absorption spectrum of IgG conjugate, equi-intense band, absent in excitation spectrum
Procedure: To the solution of 0.28 mg (1.75 nmol) of mouse IgG anti-AFP in 200 μl phosphate buffered saline (10/150 mM, pH 7.4) a 10 fold excess (17.5 nmol) of 5-carboxyrhodamine 6G succinimidyl ester (compound 15, Molecular Probes, Eugene, Oreg.) in anhydrous N,N-dimethylformamide or a 20 fold excess of Glu-Tau-succinimide derivative of 5-carboxyrhodamine 6G in acetonitrile water (reaction mixture of example 14, compound 17) was added. 40 μl of NaHCO3 (1 M, aq) was added and the mixtures were incubated at room temperature for 2 h. The products were purified with NAP-5 gel filtration column (Amersham Pharmacia Biotech, Uppsala, Sweden) using phosphate buffered saline (50/150, 10 mM NaN3, pH 7.4) as eluent. The fast moving coloured fractions were collected.
This additional absorption originates from hydrophobic interactions between the fluorophores and protein or between the two fluorophores. […] These non-fluorescent aggregates are typical for hydrophobic xanthene-type dyes (rhodamines and fluoresceins).

[2] = tested on: mouse IgG anti-AFP; test: Labelling of mouse IgG anti-AFP with dipyrrometheneboron difluoride dyes; details: 10 fold excess of label, phosphate buffered saline pH 7.4, room temperature 2 h
Procedure: To the solution of 1.5 mg (9.3 nmol) of mouse IgG anti-AFP in 400 μl phosphate buffered saline (10/150 mM, pH 7.4) a 10 fold excess (93 nmol) of compound 2, 4, 5 or 6 in anhydrous N,N-dimethylformamide was added. 40 μl of NaHCO3 (1 M, aq) was added and the mixture was incubated at room temperature for 2 h. The products were purified with NAP-5 gel filtration column (Amersham Pharmacia Biotech, Uppsala, Sweden) using phosphate buffered saline (50/150, 10 mM NaN3, pH 7.4) as eluent. The fast moving coloured fractions were collected. […] The labelling degrees of these protein conjugates (compound 4 and 6) were determined spectrophotometrically. Labelling degrees of 2.1 (compound 4) and 2.3 (compound 6) fluorophores per protein were obtained.

[3] = tested on: 5′-aminomodified oligonucleotide; test: Labelling of oligonucleotide; fluorescence yield of labelled oligonucleotide; details: labelled oligonucleotides diluted to equimolar concentrations
Procedure: To the solution of 5′-aminomodified oligonucleotide (17 bases, 28 μg, 5 nmol) in carbonate buffer (200 μl, 100 mM, pH 8.5) a 40 fold excess of labelling reagent (compound 2 or 4) in anhydrous DMF (50 μl) was added. Reaction mixture was incubated at 22° C. for 20 h. The labelled oligonucleotides were purifed by using reverse phase HPLC (RP-18 column) and gradient elution technique. Solvents were A: 2% acetonitrile in triethylammonium acetate buffer (50 mM, pH 7) and B: 70% acetonitrile in triethylammonium acetate buffer (50 mM, pH 7). The gradient started from 5% of solvent B and the amount of solvent B linearly raised to 40% in 25 minutes. Both dye-oligonucleotide conjugates (labelled with compound 2 or with compound 4) eluted between 18 to 22 minutes while the unlabelled oligonucleotide eluted at a timepoint of 10 minutes. The unbound labelling reagent was removed from the column by increasing the amount of solvent B to 100%.
The concentrations of the labelled oligonucleotides were determined spectrophotometrically. […] The labelled oligonucleotides were diluted to equimolar concentrations and the fluorescence yields were determined. […] The higher fluorescence yield of the oligonucleotide labelled with compound 4 can be explained by increased hydrophilicity of the label compound and increased distance between the label and the oligonucleotide.

normal absorption band of labelled mouse IgG anti-AFP [1] [nm]	additional absorption band of labelled mouse IgG anti-AFP (non-fluorescent aggregates, hydrophobic interactions) [1]	fluorescence yield of labelled oligonucleotide compared with oligonucleotide labelled with compound 2 [3]	Compound	precipitation of the labelled proteins on labelling [2]
530	504 nm		CCN=c1cc2oc3cc(NCC)c(C)cc3c(-c3ccc(C(=O)ON4C(=O)CCC4=O)cc3C(=O)O)c-2cc1C [compound 15, 5-carboxyrhodamine 6G succinimidyl ester, reference compound]	
530	absence of additional absorption band		Glu-Tau-succinimide derivative of 5-carboxyrhodamine 6G [compound 17]	

More lines, now with the values behind:

Compound	normal absorption band of labelled mouse IgG anti-AFP [1] [nm]	additional absorption band of labelled mouse IgG anti-AFP (non-fluorescent aggregates, hydrophobic interactions) [1]	fluorescence yield of labelled oligonucleotide compared with oligonucleotide labelled with compound 2 [3]	precipitation of the labelled proteins on labelling [2]
4,4-difluoro-5-(2-thienyl)-1,3-dimethyl-4-bora-3a,4a-diaza-s-indacene-2-propionic acid succinimidyl ester [compound 2, reference compound]				almost complete precipitation of the labelled proteins
Glu-Tau-succinimide derivative of 4,4-difluoro-5-(2-pyrrolyl)-1,3-dimethyl-4-bora-3a,4a-diaza-s-indacene-2-propionic acid [compound 6]				proceeded without any problems
Glu-Tau-succinimide derivative of 4,4-difluoro-5-(2-thienyl)-1,3-dimethyl-4-bora-3a,4a-diaza-s-indacene-2-propionic acid [compound 4]			one order of magnitude higher	proceeded without any problems
4,4-difluoro-(2-pyrrolyl)-1,3-dimethyl-4-bora-3a,4a-diaza-s-indacene-2-propionic acid succinimidyl ester [compound 5, reference compound]				almost complete precipitation of the labelled proteins
